Source: ChEMBL document CHEMBL1201862, “PubChem BioAssay data set” (2004)
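Results reflect a 48-hour exposure of cells in 96-well plates to compound at five concentrations. At the GI50, growth is halved.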 The source made the active and inactive calls. No stated cut-off is given here; in the data, active = GI50 up to about 1.1 µM and inactive = higher.

Key:
Assay in all cases: growth of human tumour cells (NCI), 48 h
786-0 = test system: 786-0
A498 = test system: A498
A549 = test system: A549
ACHN = test system: ACHN
BT-549 = test system: BT-549
CAKI-1 = test system: CAKI-1
CCRF-CEM = test system: CCRF-CEM
COLO 205 = test system: COLO 205
DU-145 = test system: DU-145
EKVX = test system: EKVX
HCC 2998 = test system: HCC 2998
HCT-116 = test system: HCT-116
HCT-15 = test system: HCT-15
HL-60 = test system: HL-60
HOP-62 = test system: HOP-62
HOP-92 = test system: HOP-92
HT-29 = test system: HT-29
Hs-578T = test system: Hs-578T
IGROV-1 = test system: IGROV-1
K562 = test system: K562
KM12 = test system: KM12
LOX IMVI = test system: LOX IMVI
M14 = test system: M14
MCF7 = test system: MCF7
MDA-MB-231 = test system: MDA-MB-231
MDA-MB-435 = test system: MDA-MB-435
MOLT-4 = test system: MOLT-4
Malme-3M = test system: Malme-3M
NCI-H226 = test system: NCI-H226
NCI-H23 = test system: NCI-H23
NCI-H460 = test system: NCI-H460
NCI-H522 = test system: NCI-H522
NCI/ADR-RES = test system: NCI/ADR-RES
OVCAR-3 = test system: OVCAR-3
OVCAR-4 = test system: OVCAR-4
OVCAR-5 = test system: OVCAR-5
OVCAR-8 = test system: OVCAR-8
PC-3 = test system: PC-3
RPMI-8226 = test system: RPMI-8226
RXF 393 = test system: RXF 393
SF-268 = test system: SF-268
SF-295 = test system: SF-295
SF-539 = test system: SF-539
SK-MEL-28 = test system: SK-MEL-28
SK-MEL-2 = test system: SK-MEL-2
SK-MEL-5 = test system: SK-MEL-5
SK-OV-3 = test system: SK-OV-3
SN12C = test system: SN12C
SNB-19 = test system: SNB-19
SNB-75 = test system: SNB-75
SR = test system: SR
SW-620 = test system: SW-620
T47D = test system: T47D
TK-10 = test system: TK-10
U-251 = test system: U-251
UACC-257 = test system: UACC-257
UACC-62 = test system: UACC-62
UO-31 = test system: UO-31

SMILES: O=C1OC(C(O)C(O)C(O)CO)C(O)C1O (stereo not drawn)
- GI50 (786-0): > 100 µM (inactive)
- GI50 (A498): > 100 µM (inactive)
- GI50 (A549): > 100 µM (inactive)
- GI50 (ACHN): > 100 µM (inactive)
- GI50 (BT-549): > 100 µM (inactive)
- GI50 (CAKI-1): > 100 µM (inactive)
- GI50 (CCRF-CEM): > 100 µM (inactive)
- GI50 (COLO 205): > 100 µM (inactive)
- GI50 (DU-145): > 100 µM (inactive)
- GI50 (EKVX): > 100 µM (inactive)
- GI50 (HCC 2998): > 100 µM (inactive)
- GI50 (HCT-116): > 100 µM (inactive)
- GI50 (HCT-15): > 100 µM
- GI50 (HL-60): > 100 µM (inactive)
- GI50 (HOP-62): > 100 µM (inactive)
- GI50 (HOP-92): > 100 µM (inactive)
- GI50 (HT-29): > 100 µM (inactive)
- GI50 (Hs-578T): > 100 µM (inactive)
- GI50 (IGROV-1): > 100 µM (inactive)
- GI50 (K562): > 100 µM (inactive)
- GI50 (KM12): > 100 µM (inactive)
- GI50 (LOX IMVI): > 100 µM (inactive)
- GI50 (M14): > 100 µM (inactive)
- GI50 (MCF7): > 100 µM (inactive)
- GI50 (MDA-MB-231): > 100 µM (inactive)
- GI50 (MDA-MB-435): > 100 µM (inactive)
- GI50 (MOLT-4): > 100 µM (inactive)
- GI50 (Malme-3M): > 100 µM (inactive)
- GI50 (NCI-H226): > 100 µM (inactive)
- GI50 (NCI-H23): > 100 µM (inactive)
- GI50 (NCI-H460): > 100 µM (inactive)
- GI50 (NCI-H522): > 100 µM (inactive)
- GI50 (NCI/ADR-RES): > 100 µM (inactive)
- GI50 (OVCAR-3): > 100 µM (inactive)
- GI50 (OVCAR-4): > 100 µM (inactive)
- GI50 (OVCAR-5): > 100 µM (inactive)
- GI50 (OVCAR-8): > 100 µM (inactive)
- GI50 (PC-3): > 100 µM (inactive)
- GI50 (RPMI-8226): > 100 µM (inactive)
- GI50 (RXF 393): > 100 µM (inactive)
- GI50 (SF-268): > 100 µM (inactive)
- GI50 (SF-295): > 100 µM (inactive)
- GI50 (SF-539): > 100 µM (inactive)
- GI50 (SK-MEL-28): > 100 µM (inactive)
- GI50 (SK-MEL-2): > 100 µM (inactive)
- GI50 (SK-MEL-5): > 100 µM (inactive)
- GI50 (SK-OV-3): > 100 µM (inactive)
- GI50 (SN12C): > 100 µM (inactive)
- GI50 (SNB-19): > 100 µM (inactive)
- GI50 (SNB-75): > 100 µM (inactive)
- GI50 (SR): > 100 µM (inactive)
- GI50 (SW-620): > 100 µM (inactive)
- GI50 (T47D): > 100 µM (inactive)
- GI50 (TK-10): > 100 µM (inactive)
- GI50 (U-251): > 100 µM (inactive)
- GI50 (UACC-257): > 100 µM (inactive)
- GI50 (UACC-62): > 100 µM (inactive)
- GI50 (UO-31): > 100 µM (inactive)
